Our source for the EC50 values is patent publication US8785488B2 (Exelixis Patent Company LLC, priority 2009, dated 2014).

By EC50 is commonly meant the midpoint of the concentration-response curve.

Like-named read-outs stand apart in the source and are kept apart here.

One assay concerns the target T1, human TGR5 (h-TGR5) (Homo sapiens, UniProt Q8TDU6).
T1 construct: expressed in transfected cells
T1 sequence (Q8TDU6 1-330): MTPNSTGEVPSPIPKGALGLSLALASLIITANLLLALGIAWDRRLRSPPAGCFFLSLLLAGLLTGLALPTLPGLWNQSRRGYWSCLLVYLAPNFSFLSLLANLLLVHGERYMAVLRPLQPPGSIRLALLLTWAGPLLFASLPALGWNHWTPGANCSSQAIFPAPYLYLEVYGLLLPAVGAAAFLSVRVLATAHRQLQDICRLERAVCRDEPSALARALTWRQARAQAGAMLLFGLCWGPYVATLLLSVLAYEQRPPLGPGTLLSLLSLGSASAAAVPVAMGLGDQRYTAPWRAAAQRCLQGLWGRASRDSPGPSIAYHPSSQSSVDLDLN
The experiment in a line: TGR5/CRE-Luciferiase Assay (HEK 293 hTGR5/CRE-Luc cells). The assay is classed as cell-based. The essentials:
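HEK293 cells stably carrying hTGR5 and a CRE-luciferase reporter were exposed to serially diluted compounds (diluted in DMEM with 5% DMSO) for 6 h. Cells were then lysed in luciferase buffer, luminescence was read, and EC50 values were derived from dose-response curves.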

The next assay has as its target T2, h-TGR5 (Homo sapiens, UniProt Q8TDU6).
T2 construct: expressed in transfected cells
T2 sequence (Q8TDU6 1-330): T1 sequence (Q8TDU6 1-330)
The assay can be described thus: TGR5 cAMP Assay using Cisbio cAMP Dynamic2 htrf kit (hTGR5CRE-luc HEK 293 cells). The assay is classed as cell-based. The essentials: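 […], 4000 hTGR5CRE-luc HEK 293 cells per well, with 0.5 mM IBMX and d2-cAMP, were incubated 30 min at room temperature with compounds in 8-point half-log series, in quadruplicate.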

Where [1] appears, read: h-TGR5 CRE-Luc EC50, Table 1, read-out: CRE-Luc (EC50).
The mark [2] stands for this setting: h-TGR5 cAMP EC50, Table 1, read-out: cAMP (EC50).

Take `CC(C)(c1ccc(S(N)(=O)=O)c(Cl)c1)c1cnc(SCc2ccc(S(=O)(=O)NC(=O)NN3CCOCC3)cc2Cl)n1-c1ccc(F)c(Cl)c1` [4-({[5-{1-[4-(aminosulfonyl)-3-chlorophenyl]-1-methylethyl}-1-(3-chloro-4-fluorophenyl)-1H-imidazol-2-yl]thio}methyl)-3-chloro-N-[(morpholin-4-ylamino)carbonyl]benzenesulfonamide]: the EC50 on human TGR5 (h-TGR5) (setting [1]) and on h-TGR5 (setting [2]) was 100 to 1000 nM each time.
Take `COc1cc(C(C)(C)c2cnc(SCc3c(F)cc(S(=O)(=O)NCCS(=O)(=O)O)cc3F)n2-c2ccc(F)cc2)ccc1Cl` [2-({[4-({[5-{1-[4-chloro-3-(methyloxy)phenyl]-1-methylethyl}-1-(4-fluorophenyl)-1H-imidazol-2-yl]thio}methyl)-3,5-difluorophenyl]sulfonyl}amino)ethanesulfonic acid]: the EC50 on human TGR5 (h-TGR5) (setting [1]) and on h-TGR5 (setting [2]) was below 100 nM each time.
In the case of `COc1cc(-n2c(SCc3ccc(Cl)c(-c4nnn[nH]4)c3)nnc2C(C)(C)c2ccc(Cl)c(OC)c2)ccc1F` [Example 49], the EC50 is below 100 nM at human TGR5 (h-TGR5) (HEK 293 hTGR5/CRE-Luc cells, 6 hours incubation, luciferase activity, Table 2, read-out: h-TGR5CRE-Luc EC50 (CRE-Luc)) and 100 to 1000 nM on h-TGR5 (hTGR5CRE-luc HEK 293 cells, htrf cAMP, Table 2, read-out: h-TGR5 cAMP EC50 (cAMP)).
As to `COc1cc(C(C)(C)c2cnc(SCc3c(F)cc(C(=O)NCCCC(NC(=N)N)C(=O)O)cc3Cl)n2-c2ccc(F)cc2)ccc1Cl` [N-2-[amino(imino)methyl]-N-5-{[3-chloro-4-({[5-{1-[4-chloro-3-(methyloxy)phenyl]-1-methylethyl}-1-(4-fluorophenyl)-1H-imidazol-2-yl]thio}methyl)-5-fluorophenyl]carbonyl}-L-ornithine], the EC50 at human TGR5 (h-TGR5) (setting [1]) and on h-TGR5 (setting [2]) was below 100 nM each time.
Take `COc1cc(C(C)(C)c2cnc(SCc3ccc(F)c(S(N)(=O)=O)c3)n2-c2ccc(F)cc2)ccc1Cl` [5-({[5-{1-[4-chloro-3-(methyloxy)phenyl]-1-methylethyl}-1-(4-fluorophenyl)-1H-imidazol-2-yl]thio}methyl)-2-fluorobenzenesulfonamide]: the EC50 at human TGR5 (h-TGR5) (setting [1]) and on h-TGR5 (setting [2]) was below 100 nM in each case.
`CC(C)(c1ccc(S(N)(=O)=O)c(Cl)c1)c1cnc(SCc2ccc(S(=O)(=O)NC(=O)NN3CCOCC3)cc2Cl)n1-c1ccc(F)c(F)c1` [4-({[5-{1-[4-(aminosulfonyl)-3-chlorophenyl]-1-methylethyl}-1-(3,4-difluorophenyl)-1H-imidazol-2-yl]thio}methyl)-3-chloro-N-[(morpholin-4-ylamino)carbonyl]benzenesulfonamide]: the EC50 on human TGR5 (h-TGR5) (setting [1]) and at h-TGR5 (setting [2]) was 100 to 1000 nM in each case.
Turning to `COc1cc(C(C)(C)c2cnc(SCc3ccc(C(=O)O)cc3F)n2-c2ccc(F)cc2)ccc1Cl` [4-({[5-{1-[4-chloro-3-(methyloxy)phenyl]-1-methylethyl}-1-(4-fluorophenyl)-1H-imidazol-2-yl]thio}methyl)-3-fluorobenzoic acid], the EC50 on human TGR5 (h-TGR5) (setting [1]) and on h-TGR5 (setting [2]) was below 100 nM in each case.
With `COc1cc(-n2c(C(C)(C)c3ccc(Cl)c(Cl)c3)cnc2SCc2c(F)cc(C(=O)NCCC(=O)O)cc2F)ccc1F` [N-({4-[({5-[1-(3,4-dichlorophenyl)-1-methylethyl]-1-[4-fluoro-3-(methyloxy)phenyl]-1H-imidazol-2-yl}thio)methyl]-3,5-difluorophenyl}carbonyl)-beta-alanine], the EC50 on human TGR5 (h-TGR5) (setting [1]) and on h-TGR5 (setting [2]) was below 100 nM throughout.
`CC(C)(c1ccc(S(N)(=O)=O)c(Cl)c1)c1cnc(SCc2ccc(F)cc2Cl)n1-c1ccc(F)cc1` [2-chloro-4-{1-[2-{[(2-chloro-4-fluorophenyl)methyl]thio}-1-(4-fluorophenyl)-1H-imidazol-5-yl]-1-methylethyl}benzenesulfonamide]: the concentration for a half-maximal effect (EC50) on human TGR5 (h-TGR5) (setting [1]) was below 100 nM; at h-TGR5 (setting [2]) it was 100 to 1000 nM.
On to `COc1cc(C(C)(C)c2cnc(SCc3cc(S(N)(=O)=O)c(Cl)cc3F)n2-c2ccc(F)cc2)ccc1Cl` [2-chloro-5-({[5-{1-[4-chloro-3-(methyloxy)phenyl]-1-methylethyl}-1-(4-fluorophenyl)-1H-imidazol-2-yl]thio}methyl)-4-fluorobenzenesulfonamide], for which the concentration giving a half-maximal response (EC50) on human TGR5 (h-TGR5) (setting [1]) and at h-TGR5 (setting [2]) was below 100 nM each time.
